Laboratory results from patent US20220160703A1, “TUMOR-SELECTIVE COMBINATION THERAPY” (The Board of Regents of The University of Texas System, priority 2019, published 2022).

Legend:
tumor specific T cells = assay: IFNγ ELISPOT / CBA tumor-specific T cell response; format: in vivo, mice
Experimental: FIGS. 3A-E. Batf3-dependent dendritic cell-mediated T cell cross-priming is required for the antitumor effect of β-lap. […] IFNγ producing cells were determined by ELISPOT assay. […] (FIG. 3D) MC38 cells were subcutaneously transplanted into C57BL/6 WT (n=5/group) and Batf3^-/- mice (n=5/group for Batf3^-/- vehicle; n=6/group for Batf3^-/- β-lap), respectively. Tumor bearing mice were treated with β-lap (0.3 mg, i.t.) every other day for four times. Tumor growth was monitored twice a week. (FIG. 3E) MC38-OVA bearing mice (n=3/group) were treated with β-lap (0.3 mg, i.t.) for one time, and 4 days later, CD11c^+ dendritic cells were purified from the tumor drain lymph node, and cocultured with CD8 T cells isolated from the spleen of OT-1 transgenic mice. The activity of cross-priming of T cells was determined by the level of cell-secreted IFNγ via Cytometric Bead Array (CBA) mouse IFNγ assay. Data are shown as mean±SEM from three independent experiments. **P<0.01, ***P<0.001, ****P<0.0001 determined by unpaired student t-test (FIGS. 3A, 3B and 3E) or two-way ANOVA (FIGS. 3C and 3D). FIGS. 4A-F. Type I IFNs and TLR4/MyD88/signaling is required for the antitumor effect of β-lap and tumor specific CTLs. (FIG. 4A) MC38 tumor bearing C57BL/6 mice (n=5/group) were treated with β-lap (0.3 mg, i.t.) every other day for four times. Anti-IFNAR blocking antibodies (150 μg, i.t.) were administrated every four days for three times during the treatment. (FIG. 4B) The MC38 tumor bearing WT (n=5/group) and […]=4/group) C57BL/6 mice were treated with β-lap (0.3 mg, i.t.) every other day for four times. (FIG. 4C) MC38 tumor bearing WT (n=5/group) and Myd88^-/- (n=3/group) C57BL/6 mice were treated with β-lap (0.3 mg, i.t.) every other day for four times. (FIG. 4D) MC38 tumor bearing WT (n=5/group) and Tlr4^-/- (n=4/group) C57BL/6 mice were treated with β-lap (0.3 mg, i.t.) every other day for four times). (FIG. 4E) MC38 tumor bearing C57BL/6 mice (n=5/group) were treated with β-lap (0.3 mg, i.t.) every other day for four times. Anti-HMGB1 neutralized antibodies (200 μg, i.p) were administrated every three days for three times during the treatment. Tumor growth was monitored twice a week. (FIG. 4F) MC38 tumor bearing WT (n=4/group) or Tlr4^-/- (n=4/group) or MyD88-/- (n=6/group) C57BL/6 mice were treated with β-lap (0.3 mg, i.t.) every other day for four times. Anti-HMGB1 neutralized antibodies (200 μg, i.p) were administrated every three days for three times during the treatment. 12 days after the initial treatment, lymphocytes from the TdLN were isolated and stimulated with MC38 tumor cells irradiated with 60 Gy. IFNγ producing cells were determined by ELISPOTs assay. Data are shown as mean±SEM from two to three independent experiments. *P<0.05, **P<0.01, ***P<0.001, ****P<0.0001 determined by two-way ANOVA. […] (FIG. 6A) Treatment schema for local β-lap treatment based combinative therapy in FIG. 6B and FIG. 6C. (FIGS. 6B-C) MC38 tumor cells were s.c. inoculated into the flank of C57BL/6 mice (n=5/group). […] Tumor growth was monitored twice a week, and numbers of tumor free mice after treatment were shown. […] Tumor growth was monitored twice a week, and numbers of tumor free mice after treatment were shown. […] 12 days after first treatment, tumor infiltrating CD45^+ cells and lymphocytes were analyzed by flow cytometry (FIG. 6G), and OT-1 antigen specific T cells in the spleen were determined by IFNγ ELISPOT assay (FIG. 6H). […]

[1] = tested on: NQO1 positive human lung carcinoma lines A549; assay: Cell survival of A549 cells (SRB); format: cell-based; details: β-lap 0-6 μM 3 hr, survival 4 days later
Experimental: (FIG. 18A) B16 NQO1 #1 cells were subcutaneously transplanted into C57BL/6 WT and Rag1KO mice (n=5/group), respectively. Tumor bearing mice were treated with β-lap (0.3 mg, i.t.) every other day for four times. (FIG. 18B) Changes of the immune cells in the tumor microenvironment 7 days after β-lap treatment. C57BL/6 mice (n=4/group) were transplanted with MC38 cells and intratumorally treated with 0.3 mg of β-lap for two times. 7 days after the last treatment, tumor tissue was removed and digested, and immune cells were analyzed with flow cytometer (unpaired student t-test was used to analyze the significance of changes, *P<0.05, **P<0.01). (FIG. 18C) C57BL/6 mice were transplanted with MC38 cells and treated with β-lap (0.3 mg, i.t.) every other day for four times. For T cell depletion, 200 μg of anti-CD4 or anti-CD8 antibodies were injected four times at three days interval during the treatment. […] Data are shown as mean±SEM.
Sulforhodamine B (SRB) Cytotoxicity Assay. 4,000 cells were planted in 96 or 48 well plate with triplicates. After overnight growth, cells were exposed to β-lapachone with or without NQO1 inhibitor dicoumarol (50 μM) for a 3-hour pulse.

B16 tumors = assay: B16 (NQO1 null or NQO1 overexpressing) tumor model; format: in vivo, mice

## CC1(C)CCC2=C(O1)c1ccccc1C(=O)C2=O [β-lap, β-lapachone]
Tumor specific T cells; MC38, splenocytes 10 days after first β-lap, irradiated tumor cells
  IFNγ-producing T cells: dramatically increased
Tumor specific T cells; MC38-OVA, 12 days after initial treatment
  OT1 antigen specific T cells in tumor tissues and spleen: neither β-lap or anti-PD-L1 monotherapy increased
Tumor specific T cells; MC38-OVA, OTI peptide stimulation
  numbers of OTI specific T cells in spleen: much higher
Tumor specific T cells; MC38-OVA, β-lap 0.3 mg i.t. once, DCs 4 days later, CBA
  IFNγ production by OTI T cells primed by TdLN DCs: more IFNγ production
Tumor specific T cells; WT mice, MC38, 12 days after initial treatment
  tumor-reactive T cells in TdLN: increased the number of tumor-reactive T cells
[1]
  response to β-lap in vitro: sensitive
B16 tumors; NQO1null parental B16, β-lap 0.3 mg i.t. four times
  tumor response: didn't response
B16 tumors; NQO1 overexpressing B16 clone #1 and #4, β-lap 0.3 mg i.t. four times
  tumor response: dramatic tumor suppression
B16 tumors; NQO1 overexpressing B16 tumors (about 100 mm^3), β-lap 0.3 mg i.t. four times, anti-PD-L1 150 μg i.p. three times
  TGI: 68.67%
